Reference: a melting point compilation (Tetko et al.; mined from patent text by program, amines drawn as free bases though some values may be those of a salt)

Row | SMILES | melting point
1 | NCCc1cccc(N2C(=O)N(c3ccc(Cl)cc3Cl)Cc3cnc(Nc4ccccc4)nc32)c1 | 131 to 135 °C
2 | CC(C)c1cccc(C(C)C)c1NC(=O)N(Cc1ccc(N(C)C)cc1)c1ccc(F)cc1 | 124 to 125 °C
3 | O=C1c2ccccc2C(=O)N1Cc1ccncc1 | 164 to 165 °C
4 | CC(O)Cn1cc(-c2ccccc2)c2ccccc2c1=O (configuration not stated) | 162 °C
5 | COCCn1nc(-c2ccc(Cl)cc2)c2ccccc2c1=O | 116 to 118 °C
6 | O=C(c1ccc(O)cc1)c1cccc(O)c1 | 200 to 201 °C
7 | CCOC(=O)NCCS(=O)CC(=O)O (configuration not stated) | 93.1 to 94.1 °C
8 | C=CCN1CCc2cc(OC)c(O)c3c2C1Cc1cc(O)c(OC)cc1-3 (single isomer, unassigned; (+)) | 161 to 171 °C
9 | CCCCSc1ccc(C2CC(=O)C(C(=O)CC)=C(O)C2)cc1[N+](=O)[O-] (configuration not stated) | 102 °C
10 | C=CCN(CC=C)c1cc(CCl)nc(N)n1 | 53 to 55 °C
11 | CC1CN(Cn2cc(C#N)c(-c3cccc(Cl)c3Cl)c2)CC(C)O1 (configuration not stated) | 91 to 97 °C
12 | CC(=O)OC1(N=NC2(OC(C)=O)CC(C)CC(C)(C)C2)CC(C)CC(C)(C)C1 (configuration not stated) | 111 to 115 °C
13 | COc1cccc(-c2nc3n(n2)Cc2cc(OC)ccc2-3)c1 | 166 to 167 °C
14 | Fc1ccccc1/C=C/c1ccc(N(c2ccccc2)c2ccccc2)cc1 | 114 to 115 °C
15 | c1cc2c3c(cccc3c1)C(NOCCCCn1ccnc1)=N2 | 126 to 128 °C
16 | CC(C)(C)OC(=O)Nc1cc(OCc2ccccc2)c2ccccc2c1I | 111 to 112 °C
17 | COC(=O)Cc1ccc2c(c1)N(C)Cc1ccccc1C2=O | 88.4 to 90.5 °C
18 | CC(=O)NC(=Cc1cccs1)C1=NC(=Cc2ccc([N+](=O)[O-])cc2)C(=O)O1 | 196 to 197 °C
19 | NS(=O)(=O)c1ccc(-n2nc(C(F)F)cc2-c2nc3ccccc3s2)cc1 | 247 to 249 °C
20 | CC(/C=C/c1sccc1-c1ccc2c(c1)C(C)(C)CCC2(C)C)=C\C(=O)O | 188 to 189 °C
21 | COc1cc2oc3ccc(C#N)cc3c2cc1F | 206 to 208 °C
22 | CN(c1cc(F)cc2cc(C3=NCCS3)[nH]c12)S(=O)(=O)c1cccs1 | 188 to 189 °C
23 | COC(=O)CS(=O)(=O)CCCCN(c1cnc(-c2ccccc2)c(-c2ccccc2)n1)C(C)C | 123 to 125 °C
24 | N#Cc1sc(Cl)nc1Cl | 34 to 35 °C

Row | SMILES | melting point
25 | CCC(O)(CC)c1cccc2[nH]c(=O)n(C)c12 | 199 to 201 °C
26 | CC1C(C#N)=C(N)OC2=C1C(=O)CC(c1cccc3ccccc13)C2 (configuration not stated) | 204 to 206 °C
27 | CCCCc1ncc(C=C2C(=O)Nc3ccc(Cl)cc32)n1Cc1ccc(C(=O)OC)cc1 | 238 to 241 °C
28 | COc1cc(OCC(=O)O)c(C)cc1SCc1ccc(OCc2ccc(C(F)(F)F)cc2)cc1 | 145 °C
29 | COc1ccc([N+](=O)[O-])cc1OCCO | 115 °C
30 | O=c1c2c[nH]c3ccc(F)cc3c-2nn1-c1ncccn1 | > 350 °C
31 | CCOC(=O)CCC(=O)NCc1ccc(N)cc1 | 62 to 64 °C
32 | CN(C)Cc1ccc(CSCCNC2=NS(=O)(=O)N=C2N2CCOCC2)o1 | 122 to 127 °C
33 | CC(C)N(C(=O)c1nn(-c2ccc(F)cc2F)c2c1C1CCC2C1)C(C)C (configuration not stated) | 107 to 109 °C
34 | COc1ccc2cc(CC(C(C)=O)C(=O)OC(C)(C)C)ccc2c1 (configuration not stated) | 63.6 °C
35 | O=C(O)CNC1CCc2ccc(O)cc21 (configuration not stated) | 260 °C
36 | OCC1Cc2cccc(F)c2OC1CO (configuration not stated) | 111 °C
37 | NC(=O)c1cc2n(c1)CCc1ccccc1C2=O | 228 °C
38 | CN1CCN(c2ncnc3c([N+](=O)[O-])cccc23)C1=O | 207 to 210 °C
39 | Cc1cc(C(=O)O)sn1 | 203 to 204 °C
40 | CN1CC(OC(=O)c2ccccc2)N(N2CC=C(C(C)(C)C)O2)C1=O (configuration not stated) | 165 to 166 °C
41 | CCC1CC(=O)N(Cc2ccc(C(=O)NC3CCCC3)cc2)N=C1c1ccc(OC)c(OC)c1 (configuration not stated) | 154 °C
42 | O=C(NCc1ccccn1)C1=C(C(=O)Nc2cc(OC3CCCC3)c(Cl)cc2F)CCCC1 | 144 to 148 °C
43 | Cc1nn(-c2c(Cl)cc(Cl)cc2Cl)c(N)c1C(=O)c1ccccc1Cl | 220 °C
44 | CC(C)(ON1C(=O)c2ccccc2C1=O)C(=O)O | 133 to 135 °C
45 | CC1(C)SC2C(N3C(=O)C(C4=CCC=CC4)NC3(C)C)C(=O)N2C1C(=O)O (configuration not stated) | 186 °C
46 | CSc1coc2ccccc2c1=O | 103 to 105 °C
47 | C[C@@H]([C@@H](O)c1ccc(O)cc1)N1CCC(O)(c2ccccc2)CC1 (relative stereo) | 202 to 204 °C
48 | COCCN(CCOC)c1ccc(NC(=O)Nc2ccc(Oc3ccncc3)cc2)cc1C(F)(F)F | 64.5 to 65 °C

Row | SMILES | melting point
49 | Cc1ccc(NC(=O)c2ccc(C(=O)Nc3ccccc3NC(=O)OC(C)(C)C)nc2)cc1Nc1nccc(-c2cccnc2)n1 | 186 to 187 °C
50 | COc1ccc2[nH]cc(-c3cc4c(OC)ncnc4n3S(=O)(=O)c3ccc(C)cc3)c2c1 | 131 °C
51 | COC(=O)COc1cc(C(=O)OC)nc2cc(Cl)ccc12 | 154 °C
52 | c1ccc(CN2CCCC3(C2)OC(c2ccccc2)(c2ccccc2)c2ccccc23)cc1 (configuration not stated) | 144 to 146 °C
53 | OCc1cn(Cc2ccc(Cl)cc2)nc1CN1CCC(c2ccccc2)(c2ccccc2)CC1 | 104 to 105 °C
54 | O=c1ccn(CC(O)CO)c(Cc2ccccc2)c1O (configuration not stated) | 185 to 186 °C
55 | O=C(NC(=O)c1ccc2ncccc2c1)NC1CCN(Cc2ccc3cc(F)ccc3c2)CC1 | 200 to 201 °C
56 | C=CC(=O)Nc1ccc2c(c1)nnn2C(C)=O | 167 to 170 °C
57 | CCc1cc(OCc2ccc(-c3ccccc3-c3nnnn3-c3ccc(C#N)cc3)cc2)c2ccccc2n1 | 165 to 166 °C
58 | CCOC(=O)c1cc([N+](=O)[O-])c(C)nc1C(=O)OCC | 90 to 91.5 °C
59 | O=C1NCCN1c1ccc(C(F)(F)F)cc1 | 169 to 171 °C
60 | O=C(O)COc1ccc2c(-c3ccc(Cl)cc3F)noc2c1Cl | 226 to 227 °C
61 | OC(COCc1ccc(Br)cc1)Cn1ccnc1 (configuration not stated) | 98 to 100 °C
62 | CS(=O)(=O)c1ccc(-c2[nH]c3ccc(Cl)cc3c2-c2cccc(Cl)c2)cc1 | 254 to 257 °C
63 | CC(C)(CC(O)(Cn1cc(Cl)c(=O)c2cnccc21)C(F)(F)F)c1cccc2c1OCC2 (configuration not stated) | 158 to 160 °C
64 | CCCCN(CCCC)c1ccc(C=Cc2ccc(C(C#N)=C(C#N)C#N)s2)c(OCc2ccccc2)c1 | 125 to 130 °C
65 | NC(=NO)c1ccc(-c2ccc(O)cc2)o1 | 157 to 158 °C
66 | Clc1ccc2c(C3CCNCC3)c[nH]c2c1Cl | 254 to 257 °C
67 | CCCCCCCCCCCCCCCCCC#CC(C(=O)OCC)C(=O)OCC | 33 to 34 °C
68 | Cc1ccc(S(=O)(=O)NC(C)(C)C(C)C)cc1 | 80 to 89 °C
69 | Cc1ccc(Cl)c(Nc2ccccc2-c2nnc(N)o2)c1Cl | 255 to 257 °C
70 | O=[N+]([O-])c1cnc(Oc2cnc3ccccc3c2)c(Cl)c1 | 123 to 127 °C
71 | COC(CNC(=O)CCl)OC | 33 to 36 °C
72 | COC(=O)c1ccc2[nH]cc(Cc3ccc(OCc4ccc5ccccc5n4)cc3)c2c1 | 179 to 180 °C
